Results from patent publication US20260234115A1, “LIPID COMPOUNDS, COMPOSITIONS, AND USES THEREOF” (Liberate Bio, Inc., priority 2023, published 2026).
Marks after values point to notes of the source that are not given here.

Legend:
[1] = Dynamic light scattering: LNP particle size and PDI; format: physicochemical; conditions: LNP compositions for Formulation F2 Study
In short: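 The LNPs were made by microfluidic mixing of the lipids in ethanol with mRNA in pH 4.0 citrate, then dialyzed into PBS pH 7.4. They were diluted in PBS pH 7.4, and particle size and PDI were measured by dynamic light scattering.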

[2] = Plate-based fluorescence (RiboGreen) assay: nucleic acid cargo content and encapsulation efficiency of LNPs; format: physicochemical; conditions: LNP compositions for Formulation F2 Study
In short: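 LNPs made by microfluidic mixing of ethanolic lipids with mRNA in pH 4.0 citrate, dialyzed into PBS pH 7.4. Cargo quantified by RiboGreen fluorescence against a standard curve: Triton-lysed samples give total, TE-only samples give free cargo; encapsulation efficiency from their ratio.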

mouse organs = experiment: In vivo activity screening in mice: organ mean total flux (p/s) of luciferase activity after injection of F2 LNP pools (Table 6, FIG. 7A-7C); conditions: luciferase mRNA
In short: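 Luciferase output per organ is reported as mean total flux (p/s) from IVIS regions of interest. Organs were collected from perfused C57BL/6J mice and imaged 10-15 min after s.c. D-luciferin, 4-6 h after i.v. dosing. Dosing was 0.25-3 mg/kg luciferase mRNA in F2 LNP pools.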

In the case of `CCCCC/C=C\C/C=C\CCCCCCCCC(CCCCCCCC/C=C\C/C=C\CCCCC)OC(=O)CCCN(C)C` [MC3, reference compound], the PDI [1] is reported as 0.098, the “Particle Size (nm)” value [1] is reported as 87.8 nm and the EE % [2] is reported as 98%. For the same molecule, the “Organ Mean Total Flux Femur” value (mouse organs; Mouse 1, dose 0.3 mg/kg) was 8.5 p/s (×10^6), the “Organ Mean Total Flux Heart” value (mouse organs; Mouse 1, dose 0.3 mg/kg) was 2.8 p/s (×10^6) and the “Organ Mean Total Flux Kidney” value (mouse organs; Mouse 1, dose 0.3 mg/kg) was 1.9 p/s (×10^6). The “Organ Mean Total Flux Liver” value (mouse organs; Mouse 1, dose 0.3 mg/kg) was 6896 p/s (×10^6), the “Organ Mean Total Flux Lung” value (mouse organs; Mouse 1, dose 0.3 mg/kg) was 17.2 p/s (×10^6) and the “Organ Mean Total Flux Muscle” value (mouse organs; Mouse 1, dose 0.3 mg/kg) was 7.5 p/s (×10^6). The “Organ Mean Total Flux Pancreas” value (mouse organs; Mouse 1, dose 0.3 mg/kg) was 2.6 p/s (×10^6), the “Organ Mean Total Flux Spleen” value (mouse organs; Mouse 1, dose 0.3 mg/kg) was 22.3 p/s (×10^6) and the “Organ Mean Total Flux Femur” value (mouse organs; Mouse 2, dose 1.0 mg/kg) was 9.9 p/s (×10^6). The “Organ Mean Total Flux Heart” value (mouse organs; Mouse 2, dose 1.0 mg/kg) was 17.0 p/s (×10^6), the “Organ Mean Total Flux Kidney” value (mouse organs; Mouse 2, dose 1.0 mg/kg) was 16.6 p/s (×10^6) and the “Organ Mean Total Flux Liver” value (mouse organs; Mouse 2, dose 1.0 mg/kg) was 15500 p/s (×10^6). For the same molecule, the “Organ Mean Total Flux Lung” value (mouse organs; Mouse 2, dose 1.0 mg/kg) was 60.5 p/s (×10^6), the “Organ Mean Total Flux Muscle” value (mouse organs; Mouse 2, dose 1.0 mg/kg) was 16.6 p/s (×10^6) and the “Organ Mean Total Flux Pancreas” value (mouse organs; Mouse 2, dose 1.0 mg/kg) was 7.4 p/s (×10^6). The “Organ Mean Total Flux Spleen” value (mouse organs; Mouse 2, dose 1.0 mg/kg) was 23.0 p/s (×10^6), the “Organ Mean Total Flux Femur” value (mouse organs; Mouse 3, dose 1.0 mg/kg) was 6.9 p/s (×10^6) and the “Organ Mean Total Flux Heart” value (mouse organs; Mouse 3, dose 1.0 mg/kg) was 8.5 p/s (×10^6). The “Organ Mean Total Flux Kidney” value (mouse organs; Mouse 3, dose 1.0 mg/kg) was 7.3 p/s (×10^6), the “Organ Mean Total Flux Liver” value (mouse organs; Mouse 3, dose 1.0 mg/kg) was 9707 p/s (×10^6) and the “Organ Mean Total Flux Lung” value (mouse organs; Mouse 3, dose 1.0 mg/kg) was 106.4 p/s (×10^6). The “Organ Mean Total Flux Muscle” value (mouse organs; Mouse 3, dose 1.0 mg/kg) was 23.6 p/s (×10^6), the “Organ Mean Total Flux Pancreas” value (mouse organs; Mouse 3, dose 1.0 mg/kg) was 2.7 p/s (×10^6) and the “Organ Mean Total Flux Spleen” value (mouse organs; Mouse 3, dose 1.0 mg/kg) was 22.8 p/s (×10^6). The “Organ Mean Total Flux Femur” value (mouse organs; Mouse 5, dose 0.5 mg/kg) was 4.8 p/s (×10^6), the “Organ Mean Total Flux Heart” value (mouse organs; Mouse 5, dose 0.5 mg/kg) was 5.7 p/s (×10^6) and the “Organ Mean Total Flux Kidney” value (mouse organs; Mouse 5, dose 0.5 mg/kg) was 18.6 p/s (×10^6). The “Organ Mean Total Flux Liver” value (mouse organs; Mouse 5, dose 0.5 mg/kg) was 5667 p/s (×10^6), the “Organ Mean Total Flux Lung” value (mouse organs; Mouse 5, dose 0.5 mg/kg) was 34.5 p/s (×10^6) and the “Organ Mean Total Flux Muscle” value (mouse organs; Mouse 5, dose 0.5 mg/kg) was 10.0 p/s (×10^6). The “Organ Mean Total Flux Pancreas” value (mouse organs; Mouse 5, dose 0.5 mg/kg) was 1.9 p/s (×10^6), the “Organ Mean Total Flux Spleen” value (mouse organs; Mouse 5, dose 0.5 mg/kg) was 17.6 p/s (×10^6) and the “Organ Mean Total Flux Femur” value (mouse organs; Mouse 6, dose 0.5 mg/kg) was 3.3 p/s (×10^6). The “Organ Mean Total Flux Heart” value (mouse organs; Mouse 6, dose 0.5 mg/kg) was 5.2 p/s (×10^6), the “Organ Mean Total Flux Kidney” value (mouse organs; Mouse 6, dose 0.5 mg/kg) was 3.9 p/s (×10^6) and the “Organ Mean Total Flux Liver” value (mouse organs; Mouse 6, dose 0.5 mg/kg) was 4796 p/s (×10^6). For the same molecule, the “Organ Mean Total Flux Lung” value (mouse organs; Mouse 6, dose 0.5 mg/kg) was 28.6 p/s (×10^6), the “Organ Mean Total Flux Muscle” value (mouse organs; Mouse 6, dose 0.5 mg/kg) was 8.2 p/s (×10^6) and the “Organ Mean Total Flux Pancreas” value (mouse organs; Mouse 6, dose 0.5 mg/kg) was 3.6 p/s (×10^6). The “Organ Mean Total Flux Spleen” value (mouse organs; Mouse 6, dose 0.5 mg/kg) was 11.7 p/s (×10^6), the “Organ Mean Total Flux Femur” value (mouse organs; Mouse 9, dose 0.5 mg/kg) was 3.8 p/s (×10^6) and the “Organ Mean Total Flux Heart” value (mouse organs; Mouse 9, dose 0.5 mg/kg) was 4.1 p/s (×10^6). The “Organ Mean Total Flux Kidney” value (mouse organs; Mouse 9, dose 0.5 mg/kg) was 2.1 p/s (×10^6), the “Organ Mean Total Flux Liver” value (mouse organs; Mouse 9, dose 0.5 mg/kg) was 3903 p/s (×10^6) and the “Organ Mean Total Flux Lung” value (mouse organs; Mouse 9, dose 0.5 mg/kg) was 12.7 p/s (×10^6). For the same molecule, the “Organ Mean Total Flux Muscle” value (mouse organs; Mouse 9, dose 0.5 mg/kg) was 5.6 p/s (×10^6), the “Organ Mean Total Flux Pancreas” value (mouse organs; Mouse 9, dose 0.5 mg/kg) was 1.1 p/s (×10^6) and the “Organ Mean Total Flux Spleen” value (mouse organs; Mouse 9, dose 0.5 mg/kg) was 5.4 p/s (×10^6). For the same molecule, the “Organ Mean Total Flux Femur” value (mouse organs; Mouse 11, dose 0.5 mg/kg) was 2.2 p/s (×10^6), the “Organ Mean Total Flux Heart” value (mouse organs; Mouse 11, dose 0.5 mg/kg) was 2.9 p/s (×10^6) and the “Organ Mean Total Flux Kidney” value (mouse organs; Mouse 11, dose 0.5 mg/kg) was 1.0 p/s (×10^6). For the same molecule, the “Organ Mean Total Flux Liver” value (mouse organs; Mouse 11, dose 0.5 mg/kg) was 2603 p/s (×10^6), the “Organ Mean Total Flux Lung” value (mouse organs; Mouse 11, dose 0.5 mg/kg) was 12.1 p/s (×10^6) and the “Organ Mean Total Flux Muscle” value (mouse organs; Mouse 11, dose 0.5 mg/kg) was 2.7 p/s (×10^6). The “Organ Mean Total Flux Pancreas” value (mouse organs; Mouse 11, dose 0.5 mg/kg) was 0.7 p/s (×10^6), the “Organ Mean Total Flux Spleen” value (mouse organs; Mouse 11, dose 0.5 mg/kg) was 4.0 p/s (×10^6) and the “Organ Mean Total Flux Femur” value (mouse organs; Mouse 12, dose 0.5 mg/kg) was 5.8 p/s (×10^6). For the same molecule, the “Organ Mean Total Flux Heart” value (mouse organs; Mouse 12, dose 0.5 mg/kg) was 2.4 p/s (×10^6), the “Organ Mean Total Flux Kidney” value (mouse organs; Mouse 12, dose 0.5 mg/kg) was 53.9 p/s (×10^6) and the “Organ Mean Total Flux Liver” value (mouse organs; Mouse 12, dose 0.5 mg/kg) was 2307 p/s (×10^6). The “Organ Mean Total Flux Lung” value (mouse organs; Mouse 12, dose 0.5 mg/kg) was 13.7 p/s (×10^6), the “Organ Mean Total Flux Muscle” value (mouse organs; Mouse 12, dose 0.5 mg/kg) was 4.1 p/s (×10^6) and the “Organ Mean Total Flux Pancreas” value (mouse organs; Mouse 12, dose 0.5 mg/kg) was 9.6 p/s (×10^6). The “Organ Mean Total Flux Spleen” value (mouse organs; Mouse 12, dose 0.5 mg/kg) was 8.6 p/s (×10^6), the “Organ Mean Total Flux Femur” value (mouse organs; Mouse 13, dose 0.5 mg/kg) was 2.7 p/s (×10^6) and the “Organ Mean Total Flux Heart” value (mouse organs; Mouse 13, dose 0.5 mg/kg) was 5.0 p/s (×10^6). The “Organ Mean Total Flux Kidney” value (mouse organs; Mouse 13, dose 0.5 mg/kg) was 0.9 p/s (×10^6), the “Organ Mean Total Flux Liver” value (mouse organs; Mouse 13, dose 0.5 mg/kg) was 1767 p/s (×10^6) and the “Organ Mean Total Flux Lung” value (mouse organs; Mouse 13, dose 0.5 mg/kg) was 8.3 p/s (×10^6). The “Organ Mean Total Flux Muscle” value (mouse organs; Mouse 13, dose 0.5 mg/kg) was 2.8 p/s (×10^6), the “Organ Mean Total Flux Pancreas” value (mouse organs; Mouse 13, dose 0.5 mg/kg) was 0.8 p/s (×10^6) and the “Organ Mean Total Flux Spleen” value (mouse organs; Mouse 13, dose 0.5 mg/kg) was 5.7 p/s (×10^6). For the same molecule, the “Organ Mean Total Flux Femur” value (mouse organs; Mouse 14, dose 0.5 mg/kg) was 2.2 p/s (×10^6), the “Organ Mean Total Flux Heart” value (mouse organs; Mouse 14, dose 0.5 mg/kg) was 4.4 p/s (×10^6) and the “Organ Mean Total Flux Kidney” value (mouse organs; Mouse 14, dose 0.5 mg/kg) was 26.8 p/s (×10^6). For the same molecule, the “Organ Mean Total Flux Liver” value (mouse organs; Mouse 14, dose 0.5 mg/kg) was 2037 p/s (×10^6), the “Organ Mean Total Flux Lung” value (mouse organs; Mouse 14, dose 0.5 mg/kg) was 19.3 p/s (×10^6) and the “Organ Mean Total Flux Muscle” value (mouse organs; Mouse 14, dose 0.5 mg/kg) was 5.7 p/s (×10^6). For the same molecule, the “Organ Mean Total Flux Pancreas” value (mouse organs; Mouse 14, dose 0.5 mg/kg) was 1.2 p/s (×10^6) and the “Organ Mean Total Flux Spleen” value (mouse organs; Mouse 14, dose 0.5 mg/kg) was 8.5 p/s (×10^6).
